Series [1] relates to prostate tumor-bearing TRAMP mice. As to conditions: 30 min dynamic PET, n = 3/group.
The conditions of series [2]: cited from earlier work.

The values that follow come from paper PMC11364845 (Scientific Reports, 2024).

For the molecule `OC[C@H]1OC(O)[C@H](F)[C@@H](O)[C@@H]1O` (stereo partly drawn) [^18F-FDG, ^18F-fluorodeoxyglucose], the “Time-dependent blood distribution by dynamic PET: JV versus RO injection” value in series [1] is “consistent circulation”. Also, in series [2] (after cardiac administration), the “Time to peak in circulation and distribute to half its concentration” value was at most 5 s. In addition, the “Time to reach a plateau in tissues” value in series [2] is listed as at most 30 min.
